Results published in patent US20090029949A1, “GPCR Ligands Identified by Computational Modeling” (priority 2006, published 2009).

Tests used:
S1P1 mutant V5.47T = biological target: T1, S1P1 mutant V5.47T (Homo sapiens, UniProt P21453, V209T); assay: [35S]GTPγS binding, S1P1 V5.47T; type: biochemical; details: S1P-induced, S1P1 V5.47T in RH7777 cells
T1 construct: expressed in transfected cells; host or cells: RH7777
Procedure: (§1) RH7777 and HEK-293 cells (ATCC, Manassas, Va.) were maintained in Dulbecco's modified minimal essential medium (DMEM) containing 10% fetal bovine serum (Hyclone, Logan, Utah). Cells (2×10^6) were transfected with 2 μg of plasmid DNA with Effectene (Qiagen, Valencia, Calif.) according to the manufacturer's instructions, for 24 h. Before ligand binding and receptor activation assays, the cells were washed twice with serum-free DMEM and serum-starved for at least 6 h.
(§2) S1P1 Receptor Activation Assays Receptor functional assays were performed in transiently transfected RH7777 cells by measuring S1P-activated [^35S]GTPγS binding as previously described (28).

[1] = Ligand-induced [35S]GTPγS binding, empty vector; type: biochemical; details: S1P-induced, empty vector in RH7777 cells
Procedure: as §1, §2

S1P1 mutant V6.40L = biological target: T2, S1P1 mutant V6.40L (Homo sapiens, UniProt P21453, V261L); assay: [32P]S1P radioligand binding, RH7777 cells, V6.40L; details: radioligand 50 nM, S1P1 V6.40L
T2 construct: expressed in transfected cells; host or cells: RH7777
T2 sequence (P21453 whole entry V261L): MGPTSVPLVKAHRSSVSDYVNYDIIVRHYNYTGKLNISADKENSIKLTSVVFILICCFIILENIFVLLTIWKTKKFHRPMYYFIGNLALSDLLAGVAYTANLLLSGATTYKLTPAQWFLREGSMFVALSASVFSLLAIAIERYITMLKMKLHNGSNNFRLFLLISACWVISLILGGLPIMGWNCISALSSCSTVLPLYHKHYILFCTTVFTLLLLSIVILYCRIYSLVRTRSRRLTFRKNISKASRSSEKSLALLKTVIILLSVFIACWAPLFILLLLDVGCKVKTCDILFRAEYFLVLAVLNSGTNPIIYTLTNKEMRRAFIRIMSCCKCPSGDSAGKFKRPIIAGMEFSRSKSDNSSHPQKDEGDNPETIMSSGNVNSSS
Procedure: as §1
(§3) The S1P binding assays were done essentially as previously described (28). Transfected RH7777 cells (5×10^5) were incubated at 4° C. in 20 mM Tris-HCl (pH 7.5) binding buffer containing 100 mM NaCl, 15 mM NaF, protease inhibitor cocktail (Sigma-Aldrich), and 0.2 mg/ml essentially fatty-acid free BSA with 1 nM [^32P]S1P in 50 nM S1P for 40 min. Cells were centrifuged and washed twice in binding buffer. The final pellet was resuspended in 2:1 CHCl3/MeOH and the suspension was equilibrated in scintillation fluid overnight. Cell-bound radioactivity was measured by liquid scintillation counting using a Beckman LS5000 TA counter (Beckman Coulter, Irvine, Calif.). Specific binding was defined as the difference between total binding and non-specific binding (in the presence of 2-5 μM cold S1P). Standard errors were computed on the basis of triplicate samples from two simultaneous transfections.

S1P1 mutant K5.38A = biological target: T3, S1P1 mutant K5.38A (Homo sapiens, UniProt P21453, K200A); assay: [35S]GTPγS binding, S1P1 K5.38A; type: biochemical; details: S1P-induced, S1P1 K5.38A in RH7777 cells
T3 construct: expressed in transfected cells; host or cells: RH7777 (transient, pcDNA3.1)
T3 sequence (P21453 whole entry K200A): as the sequence (P21453 whole entry V261L) above, with K200A, L261V counted along it
Procedure: as §1, §2

S1P1 mutant L3.36E = S1P1 mutant L3.36E (Homo sapiens, UniProt P21453, L128E); assay: [32P]S1P radioligand binding, RH7777 cells, L3.36E; design: expressed in transfected cells; host or cells: RH7777 (transient, pcDNA3.1); details: radioligand 50 nM, S1P1 L3.36E
Sequence of S1P1 mutant L3.36E (P21453 whole entry L128E): as the sequence (P21453 whole entry V261L) above, with L128E, L261V counted along it
Procedure: as §1, §3

S1P1 mutant V5.47L = biological target: T4, S1P1 mutant V5.47L (Homo sapiens, UniProt P21453, V209L); assay: [35S]GTPγS binding, S1P1 V5.47L; type: biochemical; details: S1P-induced, S1P1 V5.47L in RH7777 cells
T4 construct: expressed in transfected cells; host or cells: RH7777
T4 sequence (P21453 whole entry V209L): as the sequence (P21453 whole entry V261L) above, with V209L, L261V counted along it
Procedure: as §1, §2

S1P1 mutant T5.45S = biological target: T5, S1P1 mutant T5.45S (Homo sapiens, UniProt P21453, T207S); assay: [35S]GTPγS binding, S1P1 T5.45S; type: biochemical; details: S1P-induced, S1P1 T5.45S in RH7777 cells
T5 construct: expressed in transfected cells; host or cells: RH7777 (transient, pcDNA3.1)
T5 sequence (P21453 whole entry T207S): as the sequence (P21453 whole entry V261L) above, with T207S, L261V counted along it
Procedure: as §1, §2

S1P1 mutant W6.48E = biological target: T6, S1P1 mutant W6.48E (Homo sapiens, UniProt P21453, W269E); assay: [35S]GTPγS binding, S1P1 W6.48E; type: biochemical; details: S1P-induced, S1P1 W6.48E in RH7777 cells
T6 construct: expressed in transfected cells; host or cells: RH7777
T6 sequence (P21453 whole entry W269E): as the sequence (P21453 whole entry V261L) above, with L261V, W269E counted along it
Procedure: as §1, §2

S1P1 mutant M3.32G = biological target: T7, S1P1 mutant M3.32G (Homo sapiens, UniProt P21453, M124G); assay: [35S]GTPγS binding, S1P1 M3.32G; type: biochemical; details: S1P-induced, S1P1 M3.32G in RH7777 cells
T7 construct: expressed in transfected cells; host or cells: RH7777
T7 sequence (P21453 whole entry M124G): as the sequence (P21453 whole entry V261L) above, with M124G, L261V counted along it
Procedure: as §1, §2

[2] = biological target: T8, S1P1 double mutant L3.43, 3.44E (Homo sapiens, UniProt P21453, L135E/L136E); assay: [35S]GTPγS binding, S1P1 L3.43, 3.44E; type: biochemical; details: S1P-induced, S1P1 L3.43, 3.44E in RH7777 cells
T8 construct: expressed in transfected cells; host or cells: RH7777
T8 sequence (P21453 whole entry L135E/L136E): as the sequence (P21453 whole entry V261L) above, with L135E, L136E, L261V counted along it
Procedure: as §1, §2

S1P1 mutant I5.41A = biological target: T9, S1P1 mutant I5.41A (Homo sapiens, UniProt P21453, I203A); assay: [35S]GTPγS binding, S1P1 I5.41A; type: biochemical; details: S1P-induced, S1P1 I5.41A in RH7777 cells
T9 construct: expressed in transfected cells; host or cells: RH7777 (transient, pcDNA3.1)
T9 sequence (P21453 whole entry I203A): as the sequence (P21453 whole entry V261L) above, with I203A, L261V counted along it
Procedure: as §1, §2

S1P1 mutant T5.45G = biological target: T10, S1P1 mutant T5.45G (Homo sapiens, UniProt P21453, T207G); assay: [35S]GTPγS binding, S1P1 T5.45G; type: biochemical; details: S1P-induced, S1P1 T5.45G in RH7777 cells
T10 construct: expressed in transfected cells; host or cells: RH7777 (transient, pcDNA3.1)
T10 sequence (P21453 whole entry T207G): as the sequence (P21453 whole entry V261L) above, with T207G, L261V counted along it
Procedure: as §1, §2

S1P1 mutant V6.40T = biological target: T11, S1P1 mutant V6.40T (Homo sapiens, UniProt P21453, V261T); assay: [35S]GTPγS binding, S1P1 V6.40T; type: biochemical; details: S1P-induced, S1P1 V6.40T in RH7777 cells
T11 construct: expressed in transfected cells; host or cells: RH7777
T11 sequence (P21453 whole entry V261T): as the sequence (P21453 whole entry V261L) above, with L261T counted along it
Procedure: as §1, §2

S1P1 mutant L5.52A = biological target: T12, S1P1 mutant L5.52A (Homo sapiens, UniProt P21453, L214A); assay: [35S]GTPγS binding, S1P1 L5.52A; type: biochemical; details: S1P-induced, S1P1 L5.52A in RH7777 cells
T12 construct: expressed in transfected cells; host or cells: RH7777
T12 sequence (P21453 whole entry L214A): as the sequence (P21453 whole entry V261L) above, with L214A, L261V counted along it
Procedure: as §1, §2

S1P1 mutant F6.44Y = biological target: T13, S1P1 mutant F6.44Y (Homo sapiens, UniProt P21453, F265Y); assay: [35S]GTPγS binding, S1P1 F6.44Y; type: biochemical; details: S1P-induced, S1P1 F6.44Y in RH7777 cells
T13 construct: expressed in transfected cells; host or cells: RH7777
T13 sequence (P21453 whole entry F265Y): as the sequence (P21453 whole entry V261L) above, with L261V, F265Y counted along it
Procedure: as §1, §2

S1P1 mutant W6.48A = biological target: T14, S1P1 mutant W6.48A (Homo sapiens, UniProt P21453, W269A); assay: [32P]S1P radioligand binding, RH7777 cells, W6.48A; details: radioligand 50 nM, S1P1 W6.48A
T14 construct: expressed in transfected cells
T14 sequence (P21453 whole entry W269A): as the sequence (P21453 whole entry V261L) above, with L261V, W269A counted along it
Procedure: as §1, §3

T1 sequence (P21453 whole entry V209T): as the sequence (P21453 whole entry V261L) above, with V209T, L261V counted along it

EC50 (S1P1 mutant V5.47T): 89 nM
Emax (S1P1 mutant V5.47T; read-out: % WT Emax + s.d.): 100%
% WT Emax + s.d. [1]: ∞
EC50 + s.d. [1]: ∞
[32P]S1P binding relative to WT (S1P1 mutant V6.40L): > 50 % of the WT
EC50 (S1P1 mutant K5.38A): 32.4 nM
Emax (S1P1 mutant K5.38A; read-out: % WT Emax + s.d.): 97%
[32P]S1P binding relative to WT (S1P1 mutant L3.36E): > 50 % of the WT
% WT Emax + s.d. (S1P1 mutant V5.47L): ∞
EC50 + s.d. (S1P1 mutant V5.47L): ∞
EC50 (S1P1 mutant T5.45S): 7.9 nM
Emax (S1P1 mutant T5.45S; read-out: % WT Emax + s.d.): 28%
% WT Emax + s.d. (S1P1 mutant W6.48E): ∞
EC50 + s.d. (S1P1 mutant W6.48E): ∞
EC50 (S1P1 mutant M3.32G): 35 ± 5 nM
Emax (S1P1 mutant M3.32G; read-out: % WT Emax + s.d.): 77%
% WT Emax + s.d. [2]: ∞
EC50 + s.d. [2]: ∞
EC50 (S1P1 mutant I5.41A): 157 nM
Emax (S1P1 mutant I5.41A; read-out: % WT Emax + s.d.): 26%
EC50 (S1P1 mutant T5.45G): 30.9 nM
Emax (S1P1 mutant T5.45G; read-out: % WT Emax + s.d.): 96%
EC50 (S1P1 mutant V6.40T): 57.3 nM
Emax (S1P1 mutant V6.40T; read-out: % WT Emax + s.d.): 61%
% WT Emax + s.d. (S1P1 mutant L5.52A): ∞
EC50 + s.d. (S1P1 mutant L5.52A): ∞
EC50 (S1P1 mutant F6.44Y): 3.7 ± 3.3 nM
Emax (S1P1 mutant F6.44Y; read-out: % WT Emax + s.d.): 37%
[32P]S1P binding relative to WT (S1P1 mutant W6.48A): > 50 % of the WT
Compound: CCCCCCCCCCCCC/C=C/[C@@H](O)[C@@H](N)COP(=O)(O)O [S1P, Sphingosine 1-phosphate]
